This passage reports binding results from paper PMC8787815 (2022).

The test has as its system 6xHis mCherry F30-2xdBroccoli mRNA transcript (RNA, aptamer) GGGAGACCACAACGGUUUCCCUCUAGAAAUAAUUUUGUUUAACUUUAAGAAGGAGAUAUACCAUGUCUGGUUCUCAUCAUCAUCAUCAUCAUGGUAGCAGCGGCGAAAACCUGUAUUUUCAGUCCAUGGUGAGCAAGGGCGAGGAGGAUAACAUGGCCAUCAUCAAGGAGUUCAUGCGCUUCAAGGUGCACAUGGAGGGCUCCGUGAACGGCCACGAGUUCGAGAUCGAGGGCGAGGGCGAGGGCCGCCCCUACGAGGGCACCCAGACCGCCAAGCUGAAGGUGACCAAGGGUGGCCCCCUGCCCUUCGCCUGGGACAUCCUGUCCCCUCAGUUCAUGUACGGCUCCAAGGCCUACGUGAAGCACCCCGCCGACAUCCCCGACUACUUGAAGCUGUCCUUCCCCGAGGGCUUCAAGUGGGAGCGCGUGAUGAACUUCGAGGACGGCGGCGUGGUGACCGUGACCCAGGACUCCUCCCUGCAGGACGGCGAGUUCAUCUACAAGGUGAAGCUGCGCGGCACCAACUUCCCCUCCGACGGCCCCGUAAUGCAGAAGAAGACCAUGGGCUGGGAGGCCUCCUCCGAGCGGAUGUACCCCGAGGACGGCGCCCUGAAGGGCGAGAUCAAGCAGAGGCUGAAGCUGAAGGACGGCGGCCACUACGACGCUGAGGUCAAGACCACCUACAAGGCCAAGAAGCCCGUGCAGCUGCCCGGCGCCUACAACGUCAACAUCAAGUUGGACAUCACCUCCCACAACGAGGACUACACCAUCGUGGAACAGUACGAACGCGCCGAGGGCCGCCACUCCACCGGCGGCAUGGACGAGCUGUACAAGGGCAGCUAAAGGGUGAUCUUGCCAUGUGUAUGUGGGAGACGGUCGGGUCCAUCUGAGACGGUCGGGUCCAGAUAUUCGUAUCUGUCGAGUAGAGUGUGGGCUCAGAUGUCGAGUAGAGUGUGGGCUCCCACAUACUCUGAUGAUCCAGACGGUCGGGUCCAUCUGAGACGGUCGGGUCCAGAUAUUCGUAUCUGUCGAGUAGAGUGUGGGCUCAGAUGUCGAGUAGAGUGUGGGCUGGAUCAUUCAUGGCAACGGCUGCUAACAAAGCCCGAAAGGAAGCUGAGUUGGCUGCUGCCACCGCUGAGCAAUAACUAGCAUAACCCCUUGGGGCCUCUAAACGGGUCUUGAGGGGUUUUUUGCUGAAAGGAGGAACU
The test can be described thus: fluorescence activation (in-gel staining; plate reader). The note with it: PURExpress reaction with 10 μM DFHBI, 80.4 mM sucrose, 30 °C; also in-gel DFHBI staining; qualitative.

In the case of `CC1=N/C(=C\c2cc(F)c(O)c(F)c2)C(=O)N1C`, the binding entry is on record as “yes”.
